This passage reports IC50 results from ChEMBL document CHEMBL5257070, “The Asymmetric Total Synthesis and Configuration Confirmation of Aplysiaenal and Nhatrangin A, Truncated Derivatives of Aplysiatoxin and Oscillatoxin” (J Nat Prod, 2023).

Some results are limits rather than exact numbers.

One assay concerns L1210. Put plainly: Cytotoxicity against mouse L1210 cells incubated for 72 hrs by WST-8 method. The format is functional, cell-based. The settings on record: L1210, 72 h.
A further assay has as its system HCT-116. Put plainly: Cytotoxicity against human HCT-116 cells incubated for 72 hrs by MTT assay. The format is functional, cell-based. The conditions noted are these: HCT-116, 72 h.

Consider `CO[C@@H](CC[C@H](C)[C@H]1O[C@@]2(C=C[C@@H]1C)[C@H](C(=O)O[C@H]1COC(=O)C1)C(=O)[C@H](C)CC2(C)C)c1cccc(O)c1`, for which half-maximal inhibition in the assay on L1210 (IC50) was put at 48 µM.

As for `CO[C@@H](CC[C@H](C)[C@@H](OC(=O)C[C@@H](O)[C@@H](C)O)[C@@H](C)C(=O)O)c1cccc(O)c1`, the half-inhibitory concentration (IC50) in the assay with HCT-116 and in the assay with L1210 was more than 100 µM throughout.

As to `CO[C@@H](CC[C@H](C)/C=C(\C)C=O)c1cccc(O)c1`, the IC50 is more than 100 µM with HCT-116 and 93 µM with L1210.
